Measured values reported in ChEMBL document CHEMBL1152999, “Synthesis and anti-HSV-1 evaluation of some pyrazoles and fused pyrazolopyrimidines” (2009).

Assays:
Human alphaherpesvirus 1 [1] = assay: Antiviral activity against HSV1 infected in african green monkey Vero cells assessed as reduction in virus plaque formation at 10 ug per 10^5 cells by plaque infectivity assay; assay type: functional; design: scale not given: the % may be the effect or the level left
Human alphaherpesvirus 1 [2] = assay: Antiviral activity against HSV1 infected in african green monkey Vero cells assessed as reduction in virus plaque formation at 20 ug per 10^5 cells by plaque infectivity assay; assay type: functional; design: scale not given: the % may be the effect or the level left

SMILES | Activity (Human alphaherpesvirus 1 [1]) [%] | Activity (Human alphaherpesvirus 1 [2]) [%]
N#Cc1cnn(-c2ncnc3sc4c(c23)-c2ccccc2CC4)c1N | 16.6 | 0
CC(=O)OC[C@@H](OC(C)=O)[C@H](OC(C)=O)[C@@H](OC(C)=O)[C@H](OC(C)=O)c1nc2c3cnn(-c4ncnc5sc6c(c45)-c4ccccc4CC6)c3ncn2n1 | 29 | 57
Nc1ncnc2c1cnn2-c1ncnc2sc3c(c12)-c1ccccc1CC3 | 44.6 | 0
CC(=O)Nc1c(C#N)cnn1-c1ncnc2sc3c(c12)-c1ccccc1CC3 | 0 | 67.6
CC(=O)OC[C@@H](OC(C)=O)[C@H](OC(C)=O)[C@@H](OC(C)=O)[C@@H](/C=N/Nc1ncnc2c1cnn2-c1ncnc2sc3c(c12)-c1ccccc1CC3)OC(C)=O | 34 | 69
N#Cc1cnn(-c2ncnc3sc4c(c23)-c2ccccc2CC4)c1NC=O | 28.5 | 48
OC[C@@H](O)[C@H](O)[C@@H](O)[C@H](O)/C=N/Nc1ncnc2c1cnn2-c1ncnc2sc3c(c12)-c1ccccc1CC3 | 43 | 99
Cc1nc2c(cnn2-c2ncnc3sc4c(c23)-c2ccccc2CC4)c(=O)[nH]1 | 44.4 | 0
NNc1ncnc2c1cnn2-c1ncnc2sc3c(c12)-c1ccccc1CC3 | 56 | 0
O=c1[nH]cnc2c1cnn2-c1ncnc2sc3c(c12)-c1ccccc1CC3 | 47.7 | 0
Nc1nc2c(ncn2COCCO)c(=O)[nH]1 [ACYCLOVIR] | 12 | 28
